Structures are written as SMILES. Structures can show the parent of a compound that is named as a salt.

The source of these data is patent publication US4235904A, “4-Aryl-5-piperazinoalkyl-1,3-dioxol-2-ones, and compositions” (Instituto Luso Farmaco d'Italia S.p.A., priority 1978, dated 1980).

One series deals with plasmatic triglycerides. In words: Hypotriglyceremic activity: determination of plasmatic triglycerides in rats treated orally. The series is classed as in vivo. Particulars: Rattus norvegicus, po, 96 h, os, five treatments in 4 days, dose which reduces by 30% the content of plasmatic triglycerides, Table 2, read-out: Hypotriglyceremic activity DE30 (rats). As for the experimental part:
It has been evaluated orally in rats treated five times in 4 days (once daily during the first three days, twice daily on the fourth day) with the drugs under study. The animals, kept on an empty stomach, were killed on the fifth day, 18 hours after the last treatment. The following tests were carried out: The technique of […].,44, 267, 1966) is used; it consists in determining, by enzymatic route, the total glycerol made free by hydrolysis of the seric neutral fats. In particular, the "Biochemia Test Combination" (Boehringer Mannheim GMBH) was used. In this case, too, the seric concentration of triglycerides in the treated animals was compared with that in the controls. The calculated ED30 represents the dose which reduces by 30% the content of plasmatic triglycerides.

Series [1] is described as follows: Acute toxicity, DL50 (mice), ip. As to conditions: for LD50: mouse, in vivo.
A short description of series [2]: Antiulcer activity in the rat (immobilization, method of Rossi et al.). The series is classed as in vivo. Particulars: po, rats, os, 30 minutes before 4 hours immobilization, dose which protects 30% of the animals from ulcers, Table 3, read-out: Antiulcer activity DE30 (rats). As for the experimental part: (b) Antiulcer activity in the rat The method described by Rossi et al. (Comp.Rend.Soc.Biol., 150, 2124, 1956) was followed: 30 minutes after the oral treatment with the drugs under study, the animals, kept on an empty stomach for 48 hours, were immobilized for a period of 4 hours. At the end of this time, the presence of ulcers is checked after killing the animals by ether. The calculated ED30 represents the dose which protects 30% of the animals from ulcers.

In a further series the test system is plasmatic cholesterol. In words: Hypocholesterolemic activity: determination of plasmatic cholesterol in rats treated orally. The class given is in vivo. As to conditions: Rattus norvegicus, po, 96 h, os, five treatments in 4 days, dose which reduces by 30% the content of plasmatic cholesterol, Table 1, read-out: Hypocholesterolemic activity, DE30 (rats). As to the method: It has been evaluated orally in rats treated five times in 4 days (once daily during the first three days, twice daily on the fourth day) with the drugs under study. The animals, kept on an empty stomach, were killed on the fifth day, 18 hours after the last treatment. The following tests were carried out: The technique described by J. P. Blomhoff (Clin.Chim.Acta, 43,247, 1973) for the gas-chromatographic determination of total cholesterol was followed. 0,5 ml of the animal serum are hydrolysed at 50° C. for 1 hour with 5 ml of 2% alcoholic KOH. Cholesterol is extracted with 2% petroleum ether at 60°-80° C. and the gas-chromatographic analysis is carried out on the extract with cholesterol acetate as internal standard. The plasmatic cholesterol concentration of the treated animals is evaluated by comparing it with that of the controls. The calculated ED30 represents the dose which reduces by 30% the content of plasmatic cholesterol.

The term LD50 denotes the dose at which mortality reaches 50%. A low value points to greater toxicity. As to `Cl.Cl.O=c1oc(CCN2CCN(C(c3ccccc3)c3ccc(Cl)cc3)CC2)c(-c2ccc(Cl)cc2)o1` (stereo not shown) [Compound 18, 4-(4-chlorophenyl)-5-[2-(4-(4-chlorobenzhydryl)-1-piperazinyl)ethyl]-1,3-dioxol-2-one dihydrochloride], the ED30 with plasmatic triglycerides was determined as 20 mg/kg. Besides, the median lethal dose (LD50) in series [1] is over 1000 mg/kg.
The corresponding values for `Cl.O=c1oc(CCN2CCC3(CCCCC3)CC2)c(-c2ccc(F)cc2)o1` [Compound 17, 4-(4-fluorophenyl)-5-[2-(3-azaspiro[5,5]undecan-3-yl)ethyl]-1,3-dioxol-2-one hydrochloride] are 30 mg/kg and 190 mg/kg.
Regarding `O=c1oc(CCN2CCOCC2)c(-c2ccc(F)cc2)o1` [Compound 8, 4-(4-fluorophenyl)-5-[2-(1-morpholinyl)ethyl]-1,3-dioxol-2-one hydrochloride], the ED30 in series [2] was determined as 30 mg/kg. The same molecule returned an LD50 in series [1] of over 1000 mg/kg.
For the molecule `Cl.Cl.O=c1oc(CCN2CCN(c3ccccc3)CC2)c(-c2ccc(Cl)cc2)o1` [Compound 7, 4-(4-chlorophenyl)-5-[2-(4-phenyl-1-piperazinyl)ethyl]-1,3-dioxol-2-one dihydrochloride], the ED30 stood at 6 mg/kg in the series with plasmatic cholesterol, 30 mg/kg in the series with plasmatic triglycerides and 80 mg/kg in series [2]. Besides, the 50% lethal dose (LD50) in series [1] is 650 mg/kg.
In the case of `COc1ccc(-c2oc(=O)oc2CCN2CCN(c3ccccc3)CC2)cc1.Cl.Cl` [Compound 15, 4-(4-methoxyphenyl)-5-[2-(4-phenyl-1-piperazinyl)ethyl]-1,3-dioxol-2-one dihydrochloride], in the series on plasmatic triglycerides, the ED30 was 20 mg/kg. Also, the LD50 in series [1] was over 1000 mg/kg.
On to `O=c1oc(CCN2CCC(c3ccccc3)CC2)c(-c2ccc(Cl)cc2)o1` [Compound 22, 4-(4-chlorophenyl)-5-[2-(4-phenyl)-1-piperidinyl)ethyl]-1,3-dioxol-2-one hydrochloride], for which, in the series with plasmatic triglycerides, the ED30 worked out at 50 mg/kg. Besides, the LD50 in series [1] stood at 750 mg/kg.
In the case of `Cl.O=c1oc(CCN2CCN(C(c3ccccc3)c3ccccc3)CC2)c(-c2ccc(Cl)cc2)o1` [Compound 23, 4-(4-chlorophenyl)-5-[2-(4-benzhydryl-1-piperazinyl)ethyl]-1,3-dioxol-2-one hydrochloride], in the series with plasmatic triglycerides, the ED30 was 100 mg/kg. Further, the median lethal dose (LD50) in series [1] is over 1000 mg/kg.
With `O=C(O)/C=C\C(=O)O.O=c1oc(CCN2CCN(c3ncccn3)CC2)c(-c2ccc(Cl)cc2)o1` [Compound 19, 4-(4-chlorophenyl)-5-[2-(4-(2-pyrimidinyl)-1-piperazinyl)ethyl]-1,3-dioxol-2-one maleate], the ED30 with plasmatic cholesterol stood at 30 mg/kg. This molecule registered an LD50 in series [1] of 375 mg/kg.
For the molecule `Cl.Cl.O=c1oc(CCN2CCN(c3ccccc3)CC2)c(-c2ccccc2)o1` [Compound 6, 4-phenyl-5-[2-(4-phenyl-1-piperazinyl)ethyl]-1,3-dioxol-2-one dihydrochloride], the values for the ED30 (with plasmatic cholesterol; in the series with plasmatic triglycerides; in series [2]) were 20 mg/kg, 30 mg/kg and 20 mg/kg, respectively. In series [1], this molecule came in with an LD50 of 500 mg/kg.
Consider `Cl.Cl.O=c1oc(CCN2CCN(c3ccccc3)CC2)c(-c2ccc(F)cc2)o1` [Compound 1, 4-(4-fluorophenyl)-5-[2-(4-phenyl-1-piperazinyl)ethyl]-1,3-dioxol-2-one dihydrochloride], for which the ED30 came out at 10 mg/kg in the series on plasmatic cholesterol, 50 mg/kg in the series with plasmatic triglycerides and 10 mg/kg in series [2]. This molecule yielded a 50% lethal dose (LD50) in series [1] of 420 mg/kg.
For the molecule `Cc1ccc(-c2oc(=O)oc2CCN2CCN(c3ccccc3)CC2)cc1.Cl` [Compound 9, 4-(4-tolyl)-5-[2-(4-phenyl-1-piperazinyl)ethyl]-1,3-dioxol-2-one hydrochloride], the ED30 stood at 15 mg/kg with plasmatic cholesterol, 100 mg/kg in the series with plasmatic triglycerides and 10 mg/kg in series [2]. For the same molecule, the “Acute toxicity DL50 (mice)” value in series [1] (Table 1) and in series [1] (Table 2) was over 1000 mg/kg in each case. For the same molecule, in series [1], the median lethal dose (LD50) is over 1000 mg/kg.
Consider `COc1ccccc1N1CCN(CCc2oc(=O)oc2-c2ccc(F)cc2)CC1.Cl.Cl` [Compound 5, 4-(4-fluorophenyl)-5-[2-(4-(2-methoxyphenyl)-1-piperazinyl)ethyl]-1,3-dioxol-2-one dihydrochloride], for which, in series [2], the ED30 stood at 30 mg/kg. Further, the median lethal dose (LD50) in series [1] came to 350 mg/kg.
Turning to `CN1CCN(CCc2oc(=O)oc2-c2ccc(F)cc2)CC1.Cl.Cl` [Compound 4, 4-(4-fluorophenyl)-5-[2-(4-methyl-1-piperazinyl)ethyl]-1,3-dioxol-2-one dihydrochloride], in series [2], the ED30 was found to be 20 mg/kg. Moreover, the LD50 in series [1] is 300 mg/kg.
Turning to `O=c1oc(CCN2CCN(c3ccccc3)CC2)c(-c2ccc3ccccc3c2)o1` [Compound 14, 4-(2-naphtyl)-5-[2-(4-phenyl-1-piperazinyl)ethyl]-1,3-dioxol-2-one hydrochloride], the figures for the ED30 in the series with plasmatic cholesterol and in the series on plasmatic triglycerides were 20 mg/kg and 100 mg/kg, respectively. For the same molecule, the 50% lethal dose (LD50) in series [1] is 830 mg/kg.
With `CSc1ccc(-c2oc(=O)oc2CCN2CCN(c3ccccc3)CC2)cc1.Cl.Cl` [Compound 16, 4-(4-methylthiophenyl)-5-[2-(4-phenyl-1-piperazinyl)ethyl]-1,3-dioxol-2-one dihydrochloride], the ED30 with plasmatic triglycerides was determined as 100 mg/kg. The molecule further yielded an LD50 in series [1] of over 1000 mg/kg.
For the molecule `Cl.O=c1oc(CCN2CCN(c3cc(Cl)cc(Cl)c3)CC2)c(-c2ccc(F)cc2)o1` [Compound 10, 4-(4-fluorophenyl)-5-[2-(4-(3,5-dichlorophenyl)-1-piperazinyl)ethyl]-1,3-dioxol-2-one hydrochloride], the ED30 was 100 mg/kg in the series on plasmatic triglycerides and 50 mg/kg in series [2]. Further, in series [1] (Table 2), the “Acute toxicity DL50 (mice)” value is listed as over 1000 mg/kg. Further, in series [1], the LD50 was over 1000 mg/kg.
With `CN(CCc1ccccc1)CCc1oc(=O)oc1-c1ccc(F)cc1.Cl` [Compound 2, 4-(4-fluorophenyl)-5-[2-(N-methyl-N-2-phenylethylamino)ethyl]-1,3-dioxol-2-one hydrochloride], the ED30 in series [2] came out at 15 mg/kg. Also, the LD50 in series [1] was 175 mg/kg.
For the molecule `Cl.Cl.O=c1oc(CCN2CCN(c3ccccn3)CC2)c(-c2ccc(F)cc2)o1` [Compound 3, 4-(4-fluorophenyl)-5-[2-(4-(2-pyridyl)-1-piperazinyl)ethyl]-1,3-dioxol-2-one dihydrochloride], the ED30 in the series with plasmatic cholesterol came to 25 mg/kg. In series [1], this molecule displayed an LD50 of 350 mg/kg.
Regarding `CC1CN(CCc2oc(=O)oc2-c2ccc(F)cc2)CCN1c1ccc(Cl)cc1.Cl.Cl` (stereo not shown) [Compound 11, 4-(4-fluorophenyl)-5-[2-(4-(4-chlorophenyl)-3-methyl-1-piperazinyl)ethyl]-1,3-dioxol-2-one dihydrochloride], the ED30 in the series with plasmatic triglycerides was determined as 30 mg/kg; in series [2], 100 mg/kg. The median lethal dose (LD50) in series [1] was 1000 mg/kg.
Regarding `Cl.O=c1oc(CCCN2CCN(c3ccccc3)CC2)c(-c2ccc(F)cc2)o1` [Compound 20, 4-(4-fluorophenyl)-5-[3-(4-phenyl-1-piperazinyl)propyl]-1,3-dioxol-2-one hydrochloride], the ED30 with plasmatic cholesterol stood at 30 mg/kg; in the series with plasmatic triglycerides, 15 mg/kg. Besides, the “Acute toxicity DL50 (mice)” value in series [1] (Table 2) was over 500 mg/kg. The LD50 in series [1] is over 500 mg/kg.
In the case of `O=c1oc(CCN2CCN(c3ccc(Cl)cc3)CC2)c(-c2ccc(Cl)cc2)o1` [Compound 21, 4-(4-chlorophenyl)-5-[2-(4-chlorophenyl)-1-piperazinyl)ethyl]-1,3-dioxol-2-one hydrochloride], in the series on plasmatic triglycerides, the ED30 is 100 mg/kg. The molecule further gave a median lethal dose (LD50) in series [1] of over 1000 mg/kg.
As for `Cl.O=c1oc(CCN2CCN(c3cc(Cl)ccc3Cl)CC2)c(-c2ccc(F)cc2)o1` [Compound 12, 4-(4-fluorophenyl)-5-[2-(4-(2,5-dichlorophenyl)-1-piperazinyl)ethyl]-1,3-dioxol-2-one hydrochloride], the ED30 with plasmatic triglycerides came out at 30 mg/kg. In addition, in series [1] (Table 2), the “Acute toxicity DL50 (mice)” value stood at 1000 mg/kg.
As to `Cl.O=c1oc(CCN2CCN(c3ccc(Cl)c(Cl)c3)CC2)c(-c2ccc(F)cc2)o1` [Compound 13, 4-(4-fluorophenyl)-5-[2-(4-(3,4-dichlorophenyl)-1-piperazinyl)ethyl]-1,3-dioxol-2-one hydrochloride], the results for the ED30 (in the series on plasmatic triglycerides; in series [2]) were 25 mg/kg and 100 mg/kg, respectively. The “Acute toxicity DL50 (mice)” value in series [1] (Table 2) and in series [1] (Table 3) was 600 mg/kg in each case.
